{"source": "paper PMC12362587", "about": "“Untargeted Diversity-Oriented Synthesis for the Discovery of New Antitumor Agents: An Integrated Approach of Inverse Virtual Screening, Bioinformatics, and Omics for Target Deconvolution” (Journal of Medicinal Chemistry, 2025)", "key": {"[1]": {"test_system": "A375 cells", "assay": "Intracellular ROS measurement (DCFH-DA)", "assay_type": "cell-based, human", "settings": "10, 5, 2.5 μM for 2–8 h", "description": "Cells were treated with compounds 31 and 63 (10, 5, and 2.5 μM) for 2–8 h, and ROS levels were subsequently measured.\nThe intracellular ROS generation was detected using 10 μM DCFH-DA. This compound is oxidized by ROS to fluorescent […] (DCF) inside the cells. A375 cells were seeded (5 × 10^3 cells/well) in a volume of 100 μL per well in black 96-well OptiPlate (PerkinElmer, USA), allowing them to adhere for 24 h. After, the cells were incubated for 2, 4, and 8 h with compounds (10, 5, and 2.5 μM). Subsequently, the cells were washed twice with PBS and a staining solution containing DCFH-DA in serum-free medium without phenol red was added for 30 min at 37 °C in the dark. The stained cells were washed, and the fluorescence signals (excitation/emission 485 nm/535 nm) were read using a PerkinElmer EnSpire multimode plate reader and expressed as DCFH fluorescence intensity."}, "[2]": {"biological_target": "T1, Platelet-Derived Growth Factor Receptor-Beta (PDGFRB) (Homo sapiens, UniProt P09619)", "T1 construct": "Eurofins (contract assay)", "T1 sequence (P09619 33-1106)": "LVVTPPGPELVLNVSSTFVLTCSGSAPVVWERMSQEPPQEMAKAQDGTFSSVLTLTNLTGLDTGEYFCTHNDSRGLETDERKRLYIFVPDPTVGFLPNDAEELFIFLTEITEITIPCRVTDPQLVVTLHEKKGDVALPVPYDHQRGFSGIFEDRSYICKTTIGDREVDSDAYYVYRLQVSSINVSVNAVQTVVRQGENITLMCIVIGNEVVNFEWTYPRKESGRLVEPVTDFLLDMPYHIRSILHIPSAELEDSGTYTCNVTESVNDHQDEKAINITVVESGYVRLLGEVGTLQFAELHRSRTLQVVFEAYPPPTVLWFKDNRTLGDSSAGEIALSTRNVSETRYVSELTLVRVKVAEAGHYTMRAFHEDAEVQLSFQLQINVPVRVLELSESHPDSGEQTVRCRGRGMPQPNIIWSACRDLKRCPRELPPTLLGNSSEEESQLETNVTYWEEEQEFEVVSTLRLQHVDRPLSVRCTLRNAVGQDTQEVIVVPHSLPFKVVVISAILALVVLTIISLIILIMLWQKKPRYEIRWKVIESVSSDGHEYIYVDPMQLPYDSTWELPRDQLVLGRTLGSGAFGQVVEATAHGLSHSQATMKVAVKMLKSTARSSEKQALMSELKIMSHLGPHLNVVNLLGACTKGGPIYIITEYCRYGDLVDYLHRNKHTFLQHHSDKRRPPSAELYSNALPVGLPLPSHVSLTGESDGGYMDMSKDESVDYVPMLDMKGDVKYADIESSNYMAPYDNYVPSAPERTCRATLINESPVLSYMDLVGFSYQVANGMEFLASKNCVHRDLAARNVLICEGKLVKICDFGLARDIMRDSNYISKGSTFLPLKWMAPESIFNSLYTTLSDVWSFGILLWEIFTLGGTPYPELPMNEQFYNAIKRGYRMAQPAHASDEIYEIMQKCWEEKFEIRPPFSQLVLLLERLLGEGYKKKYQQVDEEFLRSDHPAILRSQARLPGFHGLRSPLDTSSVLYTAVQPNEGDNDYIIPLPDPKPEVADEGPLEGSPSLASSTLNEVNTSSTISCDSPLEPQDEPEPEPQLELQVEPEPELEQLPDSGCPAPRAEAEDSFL", "assay": "Kinase Enzymatic Radiometric [10 uM ATP] KinaseProfiler LeadHunter Assay", "assay_type": "biochemical", "settings": "Eurofins, read-out: EC50 or IC50, PDGFRB", "excerpt": "(§1) For displacement assays on G-protein coupled receptor 55 (GPR55), Vasopressin V2 receptor (V2R), Adenosine A1 receptor (A1AR), Fibroblast growth factor receptor 1 (FGFR1), Vascular endothelial growth factor receptor 2 (VEGFR2), Platelet-derived growth factor receptor beta (PDGFRB), Vascular endothelial growth factor receptor 1 (VEGFR1), Thromboxane Synthase (TXS) and Phosphodiesterase 10A (PDE10A), we commissioned the Eurofins company which employed its specific experimental methods, accessible at the link: https://www.eurofins.com/."}, "[3]": {"biological_target": "T2, Fibroblast Growth Factor Receptor 1 (FGFR1) (Homo sapiens, UniProt P11362)", "T2 construct": "Eurofins (contract assay)", "T2 sequence (P11362 22-822)": "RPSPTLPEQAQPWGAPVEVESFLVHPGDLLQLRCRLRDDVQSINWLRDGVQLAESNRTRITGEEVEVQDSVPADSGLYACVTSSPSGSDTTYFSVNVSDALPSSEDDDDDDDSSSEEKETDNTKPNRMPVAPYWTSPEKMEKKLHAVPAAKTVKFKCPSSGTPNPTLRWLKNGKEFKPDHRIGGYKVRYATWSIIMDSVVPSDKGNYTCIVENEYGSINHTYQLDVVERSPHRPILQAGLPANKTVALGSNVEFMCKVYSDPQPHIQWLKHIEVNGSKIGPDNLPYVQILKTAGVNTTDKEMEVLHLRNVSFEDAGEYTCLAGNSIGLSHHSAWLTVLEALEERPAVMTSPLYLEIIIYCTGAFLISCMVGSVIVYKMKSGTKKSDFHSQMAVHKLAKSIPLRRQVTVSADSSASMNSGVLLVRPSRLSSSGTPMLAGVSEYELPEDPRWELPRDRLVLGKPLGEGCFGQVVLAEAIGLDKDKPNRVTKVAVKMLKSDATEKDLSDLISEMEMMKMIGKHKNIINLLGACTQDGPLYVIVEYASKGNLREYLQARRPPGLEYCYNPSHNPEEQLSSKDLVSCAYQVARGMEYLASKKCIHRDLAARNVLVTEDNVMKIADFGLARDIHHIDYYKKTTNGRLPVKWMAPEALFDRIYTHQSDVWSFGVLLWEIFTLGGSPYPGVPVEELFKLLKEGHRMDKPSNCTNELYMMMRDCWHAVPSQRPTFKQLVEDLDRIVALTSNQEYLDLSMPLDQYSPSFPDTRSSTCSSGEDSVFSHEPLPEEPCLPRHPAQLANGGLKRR", "assay": "Kinase Enzymatic Radiometric [10 uM ATP] KinaseProfiler LeadHunter Assay", "assay_type": "biochemical", "settings": "Eurofins, read-out: EC50 or IC50, FGFR1", "excerpt": "as §1"}, "[4]": {"biological_target": "T3, Vascular Endothelial Growth Factor Receptor (VEGFR-2)/KDR (Homo sapiens, UniProt P35968)", "T3 construct": "Eurofins (contract assay)", "T3 sequence (P35968 20-1356)": "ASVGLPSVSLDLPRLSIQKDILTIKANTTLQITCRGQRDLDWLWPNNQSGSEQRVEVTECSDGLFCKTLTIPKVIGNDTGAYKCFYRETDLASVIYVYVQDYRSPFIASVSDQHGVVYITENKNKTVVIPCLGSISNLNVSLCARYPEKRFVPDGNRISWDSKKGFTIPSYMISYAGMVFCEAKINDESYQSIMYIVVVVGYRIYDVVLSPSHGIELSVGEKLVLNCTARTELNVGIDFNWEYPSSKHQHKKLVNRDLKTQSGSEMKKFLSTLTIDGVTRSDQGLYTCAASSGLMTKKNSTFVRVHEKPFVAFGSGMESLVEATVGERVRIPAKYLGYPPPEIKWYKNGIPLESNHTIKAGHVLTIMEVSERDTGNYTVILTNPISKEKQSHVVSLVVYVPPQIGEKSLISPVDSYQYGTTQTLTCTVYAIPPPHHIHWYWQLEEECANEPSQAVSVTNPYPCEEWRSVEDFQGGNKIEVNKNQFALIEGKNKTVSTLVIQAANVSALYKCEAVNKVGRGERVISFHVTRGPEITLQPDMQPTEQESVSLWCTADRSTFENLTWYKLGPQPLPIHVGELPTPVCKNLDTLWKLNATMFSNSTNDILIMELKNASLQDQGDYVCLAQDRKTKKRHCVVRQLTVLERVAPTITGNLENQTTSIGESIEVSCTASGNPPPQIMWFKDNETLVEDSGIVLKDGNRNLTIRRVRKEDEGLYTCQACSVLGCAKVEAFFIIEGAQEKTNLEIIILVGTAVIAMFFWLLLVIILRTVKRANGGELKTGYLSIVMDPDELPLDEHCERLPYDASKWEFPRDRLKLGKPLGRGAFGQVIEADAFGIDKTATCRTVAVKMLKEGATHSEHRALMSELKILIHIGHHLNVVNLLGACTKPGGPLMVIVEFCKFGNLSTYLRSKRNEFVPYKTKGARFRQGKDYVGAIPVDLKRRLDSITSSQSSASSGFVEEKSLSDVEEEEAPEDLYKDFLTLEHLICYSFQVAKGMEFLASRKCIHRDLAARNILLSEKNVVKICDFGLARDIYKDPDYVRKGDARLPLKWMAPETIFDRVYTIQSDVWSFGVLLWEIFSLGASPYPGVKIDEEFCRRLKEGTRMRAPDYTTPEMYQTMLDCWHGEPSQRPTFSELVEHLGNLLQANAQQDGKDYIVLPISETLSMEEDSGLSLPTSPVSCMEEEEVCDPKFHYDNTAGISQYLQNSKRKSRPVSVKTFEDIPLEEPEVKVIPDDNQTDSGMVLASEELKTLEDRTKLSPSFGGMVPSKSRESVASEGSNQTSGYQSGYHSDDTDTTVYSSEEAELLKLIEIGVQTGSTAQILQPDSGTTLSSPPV", "assay": "Kinase Enzymatic Radiometric [10 uM ATP] KinaseProfiler LeadHunter Assay", "assay_type": "biochemical", "settings": "Eurofins, read-out: EC50 or IC50, VEGFR-2/KDR", "excerpt": "as §1"}, "[5]": {"biological_target": "T4, PPARγ-Ligand Binding Domain (human recombinant) (Homo sapiens, UniProt P37231)", "T4 construct": "purchased Cayman", "T4 sequence (P37231 238-503 limits assumed)": "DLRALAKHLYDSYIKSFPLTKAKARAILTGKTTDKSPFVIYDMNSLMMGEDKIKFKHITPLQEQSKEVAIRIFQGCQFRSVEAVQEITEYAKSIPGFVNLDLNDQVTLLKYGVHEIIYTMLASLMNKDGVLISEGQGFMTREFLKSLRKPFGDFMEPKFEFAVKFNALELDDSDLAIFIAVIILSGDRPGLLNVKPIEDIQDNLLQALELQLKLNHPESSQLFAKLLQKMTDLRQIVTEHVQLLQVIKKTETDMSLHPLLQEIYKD", "assay": "PPARγ-LBD Ligand Screening Assay Kit (Cayman)", "settings": "PPARγ-LBD probe displacement, top concentration 30 μM; read-out: EC50 or IC50, peroxisome proliferator-activated receptor gamma", "description": "The assay was performed in a volume of 50 μL in a 96-well plate. In the PPARγ-Ligand Binding Domain screening assay (Cayman, USA), a ligand of Peroxisome proliferator-activated receptor gamma (PPARγ) is conjugated to fluorescein and is used as a displacement probe. To evaluate the binding ability to the target, PPARγ-Ligand Binding Domain (human recombinant), PPARγ Probe – Green and the compounds were incubated in the dark for 1 h at room temperature. The compounds were added at different concentrations in the reaction buffer, starting from a final concentration of 30 μM. Buffer with the same amount of DMSO (1%) was used as a negative control. The fluorescence signals (excitation/emission, 490 nm/520 nm) were read using a PerkinElmer EnSpire multimode plate reader (PerkinElmer, Waltham, MA, USA). The experiments were performed in triplicate. The IC50 values were calculated using GraphPad Prism 8.0 software by nonlinear regression of dose–response inhibition."}, "[6]": {"biological_target": "T5, Poly [ADP-ribose] polymerase tankyrase-1 (Homo sapiens, UniProt O95271)", "T5 construct": "(TNKS1) enzyme (amino acids 1001–1323; final concentration, 1.5 ng per reaction); purchased BPS Bioscience", "T5 sequence (O95271 1001-1323)": "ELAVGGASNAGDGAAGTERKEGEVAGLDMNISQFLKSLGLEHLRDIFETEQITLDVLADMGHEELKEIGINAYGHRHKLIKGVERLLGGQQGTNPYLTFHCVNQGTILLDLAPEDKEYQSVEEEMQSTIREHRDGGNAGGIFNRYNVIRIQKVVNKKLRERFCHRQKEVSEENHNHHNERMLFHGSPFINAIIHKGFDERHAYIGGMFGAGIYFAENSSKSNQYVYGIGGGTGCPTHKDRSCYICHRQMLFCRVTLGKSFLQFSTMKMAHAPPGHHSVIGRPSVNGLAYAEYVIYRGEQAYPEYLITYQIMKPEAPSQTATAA", "assay": "TNKS1 (PARP5A) Colorimetric Assay Kit (BPS Bioscience)", "assay_type": "biochemical", "settings": "top concentration 30 μM; read-out: EC50 or IC50, Poly [ADP-ribose] polymerase tankyrase-1", "description": "The assay was performed in a volume of 50 μL in a 96-well transparent plate. The TNKS1 assay kit (PARP5A; BPS Bioscience, USA) was performed by first coating the 96-well plate with histone proteins, then left at 4 °C overnight. Next, Poly [ADP-ribose] polymerase tankyrase-1 (TNKS1) enzyme (amino acids 1001–1323; final concentration, 1.5 ng per reaction), a mixture of biotinylated NAD^+ (PARP substrate) and compounds were incubated for 1 h at room temperature. The compounds were added at different concentrations in the reaction buffer, starting from a final concentration of 30 μM. Buffer with the same amount of DMSO (1%) was used as a negative control. After incubation, the plate was treated with streptavidin-HRP followed by the addition of the colorimetric HRP substrate generating a colored solution. The generated signal was read at an absorbance of 450 nm using a microplate reader with UV/vis spectrophotometer (Multiskan Go, Thermo Fisher Scientific, Waltham, MA, USA). Experiments were performed in triplicate. IC50 values were calculated with GraphPad Prism 8.0 software by nonlinear dose–response inhibition regression."}, "[7]": {"biological_target": "T6, protein-tyrosine kinase 6 (BRK) (Homo sapiens, UniProt Q13882)", "T6 construct": "purchased BPS Bioscience", "T6 sequence (Q13882 whole entry)": "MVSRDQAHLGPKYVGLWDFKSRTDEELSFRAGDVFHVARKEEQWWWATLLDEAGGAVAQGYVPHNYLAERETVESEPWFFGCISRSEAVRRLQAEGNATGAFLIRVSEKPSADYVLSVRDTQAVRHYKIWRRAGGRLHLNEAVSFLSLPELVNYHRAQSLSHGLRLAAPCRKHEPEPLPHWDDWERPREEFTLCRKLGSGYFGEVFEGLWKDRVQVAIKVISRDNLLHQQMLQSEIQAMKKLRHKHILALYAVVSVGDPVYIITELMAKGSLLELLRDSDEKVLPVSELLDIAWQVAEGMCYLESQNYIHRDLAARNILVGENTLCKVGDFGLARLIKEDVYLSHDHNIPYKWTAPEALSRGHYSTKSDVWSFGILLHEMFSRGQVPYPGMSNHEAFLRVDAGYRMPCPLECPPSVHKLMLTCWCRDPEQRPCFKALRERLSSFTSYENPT", "assay": "BRK kinase assay (BPS Bioscience)", "assay_type": "biochemical", "settings": "top concentration 30 μM, read-out: EC50 or IC50, protein-tyrosine kinase 6", "description": "The assay was performed in a volume of 50 μL in a 96-well white plate. […] For activity measurement, the kinase (final concentration, 10 ng per reaction), PTK (Poly-Glu, Tyr 4:1; BRK substrate), ATP (final concentration, 500 μM) and compounds were incubated for 45 min at 30 °C. The compounds were added at different concentrations in the reaction buffer, starting from a final concentration of 30 μM. Buffer with the same amount of DMSO (1%) was used as a negative control. After the incubation time, ADP-Glo Kinase detection reagent was added for 45 min at room temperature. The generated luminescent signal was read in end point mode using a PerkinElmer AlphaScreen multimodal plate reader (PerkinElmer, Waltham, MA, USA). Experiments were performed in triplicate. IC50 values were calculated with GraphPad Prism 8.0 software by nonlinear dose–response inhibition regression."}}}
{"smiles": "CC(C)C[C@H]1C(=O)N(Cc2ccc(C(F)(F)F)cc2)c2ccccc2C(=O)N1Cc1ccc(C(F)(F)F)cc1", "note": "[Compound 31, (S)-3-Isobutyl-1,4-bis(4-(trifluoromethyl)benzyl)-3,4-dihydro-1H-benzo[e][1,4]diazepine-2,5-dione]", "values": [{"measurement": "intracellular ROS levels", "setting": "[1]", "value": "significant concentration-dependent increase in ROS levels"}, {"measurement": "IC50", "setting": "[2]", "value": "≥ 30", "unit": "µM"}, {"measurement": "IC50", "setting": "[3]", "value": "≥ 30", "unit": "µM"}, {"measurement": "IC50", "setting": "[4]", "value": "≥ 30", "unit": "µM"}, {"measurement": "IC50", "setting": "[5]", "value": "> 30", "unit": "µM"}, {"measurement": "IC50", "setting": "[6]", "value": "> 30", "unit": "µM"}, {"measurement": "IC50", "setting": "[7]", "value": "19 ± 3.04", "unit": "µM"}]}
{"smiles": "CC(C)C[C@@H](C(=O)OCc1ccccc1)N1Cc2ccccc2NC1=O", "note": "[Compound 63, Benzyl (S)-4-Methyl-2-(2-oxo-1,4-dihydroquinazolin-3(2H)-yl)pentanoate]", "values": [{"measurement": "intracellular ROS levels", "setting": "[1]", "value": "delayed and more moderate effect than compound 31"}, {"measurement": "IC50", "setting": "[2]", "value": "≥ 30", "unit": "µM"}, {"measurement": "IC50", "setting": "[3]", "value": "≥ 30", "unit": "µM"}, {"measurement": "IC50", "setting": "[4]", "value": "≥ 30", "unit": "µM"}, {"measurement": "IC50", "setting": "[5]", "value": "> 30", "unit": "µM"}, {"measurement": "IC50", "setting": "[6]", "value": "> 30", "unit": "µM"}, {"measurement": "IC50", "setting": "[7]", "value": "29.2 ± 4.53", "unit": "µM"}]}
